US20220213341A1, “COLORED RESIN PARTICLE DISPERSION, INK, INK SET, INK JET TEXTILE PRINTING METHOD, MANUFACTURING METHOD OF OIL-SOLUBLE DYE, AND PRINTED TEXTILE PRODUCT” (FUJIFILM CORPORATION, priority 2019, published 2022)

Test: MEK solubility of the dyes
Assay type: physicochemical
Details: solubility in methyl ethyl ketone at 20° C.
Description: In the present disclosure, the “oil-soluble dye” means a dye having a solubility of 5 mass % or greater in methyl ethyl ketone at 20° C. (hereinafter, also referred to as “MEK solubility”).

| MEK Solubility | SMILES |
| --- | --- |
| 10 mass % | CCCCC(CC)COCCS(=O)(=O)c1ccc(/N=N/c2c(S(=O)(=O)O)cc3cc(S(=O)(=O)O)c(/N=N/c4ccc(S(=O)(=O)CCOCC(CC)CCCC)cc4)c(O)c3c2N)cc1 (stereo not drawn) [d-2] |
| 10 mass % | CCCCCCCCN(CCCCCCCC)CCS(=O)(=O)c1ccc(/N=N/c2c(S(=O)(=O)O)cc3cc(S(=O)(=O)O)c(/N=N/c4ccc(S(=O)(=O)CCN(CCCCCCCC)CCCCCCCC)cc4)c(O)c3c2N)cc1 [d-9] |
| 7 mass % | CC(C)CNCCS(=O)(=O)c1ccc(/N=N/c2c(S(=O)(=O)O)cc3cc(S(=O)(=O)O)c(/N=N/c4ccc(S(=O)(=O)CCNCC(C)C)cc4)c(O)c3c2N)cc1 [d-5] |
| 10 mass % | CCCCC(CC)COCCCNCCS(=O)(=O)c1ccc(/N=N/c2c(S(=O)(=O)O)cc3cc(S(=O)(=O)O)c(/N=N/c4ccc(S(=O)(=O)CCNCCCOCC(CC)CCCC)cc4)c(O)c3c2N)cc1 (stereo not drawn) [d-4] |
| 10 mass % | CCCCCCN(CCCCCC)CCS(=O)(=O)c1ccc(/N=N/c2c(S(=O)(=O)O)cc3cc(S(=O)(=O)O)c(/N=N/c4ccc(S(=O)(=O)CCN(CCCCCC)CCCCCC)cc4)c(O)c3c2N)cc1 [d-8] |
| 10 mass % | CC(C)(C)CC(C)(C)NCCS(=O)(=O)c1ccc(/N=N/c2c(S(=O)(=O)O)cc3cc(S(=O)(=O)O)c(/N=N/c4ccc(S(=O)(=O)CCNC(C)(C)CC(C)(C)C)cc4)c(O)c3c2N)cc1 [d-6] |
| 10 mass % | CCCCCCCCCCCCSCCS(=O)(=O)c1ccc(/N=N/c2c(S(=O)(=O)O)cc3cc(S(=O)(=O)O)c(/N=N/c4ccc(S(=O)(=O)CCSCCCCCCCCCCCC)cc4)c(O)c3c2N)cc1 [d-3] |
| 7 mass % | CCCCN(CCCC)CCS(=O)(=O)c1ccc(/N=N/c2c(S(=O)(=O)O)cc3cc(S(=O)(=O)O)c(/N=N/c4ccc(S(=O)(=O)CCN(CCCC)CCCC)cc4)c(O)c3c2N)cc1 [d-7] |
